Data set [1] deals with Enterococcus faecalis (ATCC 29212). Kind of data set: microbe, parasite or virus in culture. It is filed as cell-based. As to conditions: ATCC 29212. As to the method: (§1) The gram-positive bacterial strains are: Enterococcus faecalis (ATCC 29212), and Staphylococcus aureus (ATCC 25923) and the gram-negative strains are: Escherichia coli (ATCC 25922), Pseudomonas aeruginosa (ATCC 27853) and Salmonella typhimurim (clinical isolate), Salmonella typhiTy2 (WHO). The bacteria are cultured with shaking all night at 37° C., then recultured at a dilution of 1:50 in some fresh Luria-Bertani (LB) medium for 2 hours. The bacterial concentration is adjusted to […], and 50 μl is distributed in 96-well plates with an equal volume of peptides diluted half and half (256-0.5 μg/ml) in LB medium. […] To determine the minimum bactericide concentration, 10 μl from each well is spread on gelose plates in LB medium.
(§2) The results are expressed as the peptide concentration in MBC (μM).

Data set [2] relates to Escherichia coli (ATCC 25922). Kind of data set: microbe, parasite or virus in culture. The class given is cell-based. The note with it: ATCC 25922; read-out: MBC. As to the method:
as §1, §2

The subject of data set [3] is Pseudomonas aeruginosa (ATCC 27853). Nature of the data set: microbe, parasite or virus in culture. The class given is cell-based. The note with it: ATCC 27853. As to the method:
as §1, §2

The test system of data set [4] is Staphylococcus aureus (ATCC 25923). Nature of the data set: microbe, parasite or virus in culture. The class given is cell-based. As to conditions: ATCC 25923. As for the experimental part: as §1, §2
For data set [5], the system named is Salmonella typhimurim (clinical isolate). Kind of data set: Antibacterial activity of cationic peptides (MBC). It is filed as cell-based. The note with it: S. typhimurium. As for the experimental part:
as §1, §2

Data set [6] deals with Salmonella typhiTy2 (WHO). Nature of the data set: microbe, parasite or virus in culture. It is filed as cell-based, S. typhi-Ty2. As to conditions: S. typhi-Ty2. As to the method: as §1, §2
For data set [7] the following is noted: mouse, in vivo, iv.
Method: (§9) Injection of doxorubicin or doxorubicin-peptide by the intravenous route makes it possible to compare the toxicity of the different preparations. The estimate is made by the weight loss of the mice (5 mice per group). Two experiments were done: • Experiment 1: The mice received 200 μg per injection at 3-day intervals, or 600 μg of doxorubicin or the equivalent peptide-doxorubicin in all. The mice were weighed the day after the last injection. • Experiment 2: The mice received 2 injections of 200 -μg of doxorubicin or the peptide-doxorubicin equivalent at one week intervals, or 400 μg in all, and were weighed the day after the last injection.
(§10) The average weight loss is calculated in relation to the average weight of the mice that received NaCl.
A further data set has as its system H1299. Nature of the data set: Growth inhibition by peptide-doxorubicin conjugates (MTT, 48 hours). It is filed as cell-based. The note with it: Homo sapiens, NCI-H1299, read-out: molar concentration giving 50% inhibition of the growth of the cells. As to the method:
(§3) To evaluate the biological activity of peptide-doxorubicin conjugates, the inhibition of the growth of tumor cells in culture is measured.
(§4) The cells are sown the night before in 96-well plates at the rate of 10^3 cells per well.

Another data set has as its system HH9. The data set is described as above. It is filed as cell-based. As to conditions: Homo sapiens, read-out: molar concentration giving 50% inhibition of the growth of the cells. As for the experimental part:
as §3, §4

In the next data set the test system is B16.F10. The data set is described as above. It is filed as cell-based, murine. The note with it: Mus musculus, read-out: molar concentration giving 50% inhibition of the growth of the cells. As to the method:
as §3, §4

A further data set deals with K562 R. The description is as above. The class given is cell-based. As to conditions: Homo sapiens, K-562R, read-out: molar concentration giving 50% inhibition of the growth of the cells, resistant to doxorubicin. As to the method:
as §3, §4
(§5) It appears that, in vitro, the sensitivity of the cells to the peptide-doxorubicin conjugates is on the same order of magnitude as that of natural doxorubicin. The lines resistant to doxorubicin (K562R and MCF7R) require a greater concentration of doxorubicin.

For the next data set, the system named is MCF7R. The data set is described as above. It is filed as cell-based. The note with it: Homo sapiens, read-out: molar concentration giving 50% inhibition of the growth of the cells, resistant to doxorubicin. As to the method:
as §3, §4, §5

Data set [8] has as its system HH9 tumors. Nature of the data set: In vivo anti-tumor activity of peptide-doxorubicin conjugates. Also on record: species or system nude mice. The note with it: day 60, total of 120 μg of doxorubicin or the equivalent, peritumoral injection. As to the method:
Nude mice are injected with 3×10^6 HH9 cells subcutaneously in the side. On day 19 after the cell implant, the tumors are measured, and 4 groups of 6 mice are formed that receive by peritumoral injection either NaCl, or natural doxorubicin, or 1047-doxorubicin, or HBP1-doxorubicin conjugates at the rate of 30 μg of doxorubicin or the equivalent of conjugates every two weeks. The tumors are measured and their volume calculated.

Data set [9] can be described thus: In vivo toxicity of peptide-doxorubicin conjugates (weight loss). As to conditions: for Weight loss: relative to mice that received NaCl; for Weight of the mice: intravenous, peptide-doxorubicin conjugates.
Method: as §9, §10
The test system of data set [10] is HH9 tumors. Also on record: species or system nude mice. The note with it: mouse, in vivo. As to the method: The nude mice received subcutaneous transplants of HH9 tumor cells as described above. On day 9 after the transplant, the mice received twice a week, by peritumoral injection, 100 μg of RNase, or 65 μg of peptide (HBP3)2 or 65 μg of peptide (HBP3)2+100 μg of RNase, or 100 μg of peptide conjugate (HBP3)2-RNase or HBP6-RNase conjugate. On day 26, the mice were killed and their tumors weighed.

For data set [11], the system named is Escherischia coli (ATCC25922). Kind of data set: Activity of lysozyme coupled to peptides (MBC). It is filed as cell-based, Escherichia coli. As to conditions: E. coli. As to the method:
The […] bacterial strain Escherischia coli (ATCC25922) is cultured until the semi-logarithmic phase in Luria-Bertani (LB) medium. The bacteria are collected by centrifugation and resuspended in 1% bacto-peptone medium at a concentration of 5×10^5 cfu/ml (colony forming unit/ml). Lysozyme or the peptide-lysozyme conjugates are diluted half and half (256 to 0.5 μg/ml) in bacto-peptone medium, and 50 μl is distributed in 96-well plates. 50 μl of the bacterial dilution is then added to each well. After 16 hours of incubation at 37° C., 10 μl from each well is smeared on gelose plates in LB medium.
Table 28 reports the inhibition of the growth of E. coli (MBC μg/ml).

A further data set has as its system 3T3 cells. Nature of the data set: Heparin inhibition of internalization of peptide-peroxidase conjugates. The class given is cell-based, mouse. As for the experimental part:
(§6) a) Heparin (50 μg/ml) was incubated with the cells for 1 hour before adding the peptide-peroxidase conjugates at 0.2 μg/ml for 2 hours. The cells were then lysed and the peroxidase dosed.
(§7) The quantity of heparin necessary to inhibit 50% penetration of the peptides coupled to peroxidase was evaluated with these two types of cells, by incubating the cells with the peptide-peroxidase conjugates with increasing concentrations of heparin. The results of inhibiting internalization of the peptides are expressed as the heparin concentration (μg/ml) in Table 2 below.

Data set [12] concerns HeLa cells. The description is as above. It is filed as cell-based, human. As for the experimental part:
as §6, §7

Data set [13] can be described thus: ELISA fixation of biotinylated peptides on sensitized plates. It is filed as binding. As to conditions: read-out: avidity (Kd), quantity of peptides necessary to obtain 50% fixation, Heparin; Table 5. As for the experimental part: The capacity of peptides SEQ ID NO: 1 to 21 to attach themselves to DNA and heparin is evaluated on ELISA plates sensitized with DNA or heparin. Dilutions of biotinylated peptides are deposited on the plates and their fixation is shown using streptavidin conjugated with peroxidase. […] The avidity of each of the peptides for DNA or heparin is evaluated by the quantity (×10^−6 M) of peptides necessary to obtain 50% fixation.
Background: An ELISA detects its analyte on a solid surface through an enzyme-linked reagent.

Assay in data set [14]: as above
The class given is binding. The note with it: read-out: avidity (Kd), quantity of peptides necessary to obtain 50% fixation, Chondroitin A; Table 5.

Assay in data set [15]: as above
It is filed as binding. As to conditions: read-out: avidity (Kd), quantity of peptides necessary to obtain 50% fixation, Chondroitin B; Table 5.

Assay in data set [16]: as above
It is filed as binding. As to conditions: read-out: avidity (Kd), quantity of peptides necessary to obtain 50% fixation, Chondroitin C; Table 5.

Data set [17] deals with H1299 cells. Nature of the data set: Internalization of biotinylated peptide/S-PO complexes. It is filed as cell-based, human. The note with it: peptide: S-PO complexes of 4:1, peptide concentration of 1 μg. A digest of the protocol:
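Biotinylated peptides precomplexed 15 min with streptavidin- or avidin-peroxidase at 25:1 or 4:1 peptide:conjugate molar ratio in PBS, diluted in complete medium and incubated with H1299 cells for 4 h. After washing and lysis, internalised peroxidase quantified with ortho-dianisidine/H2O2 at 450 nm against an S-PO standard curve, as pg per 10^4 cells.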

The test system of data set [18] is H1299 cells. Nature of the data set: Internalization of covalent peptide-peroxidase conjugates. The class given is cell-based, human. As to conditions: Table 9; H1299; 0.2 μg/ml conjugate, 2 hours. In outline:
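Peptides coupled via C-terminal cysteine to maleimide-activated peroxidase; uncoupled peptide removed by ultrafiltration. H1299 cells incubated 2 h with increasing conjugate concentrations, washed, lysed; internalized peptide quantified from lysate peroxidase against a conjugate standard curve, as pg/10^3 cells.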

The test system of another data set is 3T3. The data set is described as above. It is filed as cell-based, mouse. As to conditions: Table 9, 0.2 μg/ml conjugate, 2 hours. In outline:
(§8)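 Peptides coupled via C-terminal cysteine to maleimide-activated peroxidase, free peptide removed by ultrafiltration. Cells incubated 2 h with 0.2 μg/ml conjugate; peroxidase dosed in lysates, expressed as pg/10^3 cells.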

For a further data set, the system named is HeLa. The description is as above. The class given is cell-based, human. The note with it: Table 9, 0.2 μg/ml conjugate, 2 hours. A digest of the protocol:
as §8

For data set [19], the system named is HeLa cells. Nature of the data set: Penetration of RNase A transported by peptide-F(ab′)2 anti-RNase transporter. The class given is cell-based, human.
Method: Two mg of antibody F(ab′)2 anti-RNase in 1 ml of potassium phosphate buffer 0.1 M pH 7.4 are added to 110 μg of SMCC [succinimidyl 4-(N-maleimidomethyl)cyclohexane-1-carboxylate] in 11 μl of dimethylsulfoxide. The solution is incubated for 45 minutes at laboratory temperature. The excess reagent is eliminated by centrifugation on ultrafiltration membranes (cutoff threshold=10,000 Da, Vivascience), followed by three washings in sodium phosphate buffer 10 mM, pH 7 containing 01.5 M of NaCl and 5 mM of EDTA. The coupling with the peptide is then done in a molar ratio of 6 peptides to 1 F(ab′)2 in the sodium phosphate buffer 10 mM, pH 7, containing 0.5 M of NaCl and 5 mM of EDTA for three hours at laboratory temperature. Then, the excess uncoupled peptide is totally eliminated by centrifugation on ultrafiltration membranes, as in the preceding step. These transporters [anti-RNase peptide-F(ab′)2)] are added to ribonuclease A in some complete culture medium, and the solution is incubated for 1 hour at laboratory temperature. The molar ratio of this reaction is 2 RNase/1 F(ab′)2. […]
To measure the quantity of RNase A internalized, the cells are trypsinized, transferred into microtubes and counted. […]

Like-named read-outs stand apart in the source and are kept apart here. Marks after values point to notes of the source that are not given here. Where no end group is shown, it is not given here.

Method for HH9 cells: The cells are sown at night on plates with 96 wells, at the rate of 10^3 cells per well.
The next day, the supernatant is suctioned off and replaced with 100 μl of medium containing succession dilutions of RNase A-vector or natural RNase A and the culture continued for 72 hours.
The wells are then filled with 50 μl of a solution of MTT (3-(4,5-dimethylthiazol-2-yl)-2,5-diphenyl tetrazolium bromide) at 1 mg/ml in the culture medium and cultivated for 4 hours.
The supernatant is removed, and 100 μl of dimethylsulfoxide is added to the wells. After the crystals dissolve, the coloration is read at 550 nm.
The results are calculated as a percentage of the average optic density obtained in the wells of cells containing the dilutions of the samples being tested and the optical density of the wells that received only medium.
The different peptide-RNase conjugates were tested on varied cell lines.

With KHLKKHLKKHLK [SEQ ID NO: 38], the MBC in [1], in data set [2], in data set [3], in data set [4], in data set [5] and in data set [6] was greater than 170 µM throughout. In addition, the “Weight of the mice” value in data set [7] was determined as 30.
Regarding `COc1cccc2c1C(=O)c1c(O)c3c(c(O)c1C2=O)C[C@@](O)(C(=O)CO)C[C@@H]3O[C@H]1C[C@H](N)[C@H](O)[C@H](C)O1` [Doxorubicin (natural), Doxorubicin], the IC50 in the data set on H1299 amounted to 300 nM; in the data set with HH9, 300 nM; with B16.F10 it was 100 nM; in the data set on K562 R, 3000 nM; in the data set on MCF7R, 200000 nM. Also, the tumor growth inhibition in the data set on HH9 tumors [8] is on record as 79%. Moreover, the Weight loss is listed as 31* % in [9] (Exp. 1: 600 μg in all); 31% in data set [9] (Exp. 1: 600 μg in all, listed as natural doxorubicin); 15% in data set [9] (Exp. 2: 400 μg in all). In addition, the “Weight of the mice” value in data set [9] (Exp. 1: 600 μg of doxorubicin or equivalent in all) was determined as 16.06; in [9] (Exp. 2: 400 μg of doxorubicin or equivalent in all) it was 26.7.
In the case of SERKKRRRESRKKRRRES [SEQ ID NO: 26], the “Inhibition of the growth of the tumors” value with HH9 tumors [10] amounted to 10%.
For the molecule “Natural lysozyme: lysozyme, a muraminidase, unconjugated”, the “minimal bactericide concentration (MBC), inhibits 75% of the growth” value in data set [11] was greater than 256 µg/mL.
As to GRPRESGKKRKRKRLKP [SEQ ID NO: 21], the “heparin concentration necessary to inhibit 50% penetration of the peptides coupled to peroxidase” value with 3T3 cells is 4.1 µg/mL; with HeLa cells [12], 2.3 µg/mL. In addition, the Kd in data set [13] worked out at 16 nM; in data set [14] it was 135 nM; in data set [15] it was 110 nM; in [16], 12 nM. The same molecule came in with a S-PO internalized with H1299 cells [17] of 1680 pg/10^4 cells. The “Internalization of Peptide-peroxidase” value with H1299 cells [18] came out at 21.9 pg/10^3 cells; in the data set on 3T3, 83.7 pg/10^3 cells; in the data set on HeLa, 13.2 pg/10^3 cells.

B1: natural RNase A: bovine Ribonuclease A, unconjugated (protein)
chain: KETAAAKFERQHMDSSTSAASSSNYCNQMMKSRNLTKDRCKPVNTFVHESLADVQAVCSQKNVACKNGQTNCYQSYSTMSITDCRETGSSKYPNCAYKTTQANKHIIVACEGNPYVPVHFDASV
As to B1, the “Quantity of RNase internalized” value in the data set with HeLa cells [19] is 0 pg/10^4 cells. The cytotoxic activity entry in the data set with HH9 cells was “no cytotoxic activity”.

The values are drawn from patent US8003595B2, “Amino acid sequences facilitating penetration of a substance of interest into cells and/or cell nuclei” (Cellectis, priority 2000, dated 2011).
